Where “and” joins values, the source holds several entries; their conditions need not be identical. Identical values can stand only once. Inconclusive results and toxic doses are left out. Cut-off read from the data, not from the text of the source: active = T/C of 150% or more; inactive = T/C below 125%.
Test system: L1210 leukemia ip in BDF1 mice, survival T/C
Assay: NCI In Vivo Anticancer Drug Screen. Data for tumor model L1210 Leukemia (intraperitoneal) in B6D2F1 (BDF1) mice
Details: endpoint: mean survival time, higher = longer survival
Procedure, shortened: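 Antitumor effect is assessed in tumor-bearing animals. Survival in the compound arm is compared with a vehicle-dosed control arm and expressed as their quotient.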

[1] = dose: 100.0 mg/kg/injection, schedule: Q01DX001 (ip), vehicle: saline with Tween-80
[2] = dose: 200.0 mg/kg/injection, schedule: Q01DX001 (ip), vehicle: saline with Tween-80
[3] = dose: 400.0 mg/kg/injection, schedule: Q01DX001 (ip), vehicle: saline with Tween-80
[4] = dose: 100.0 mg/kg/injection, schedule: Q01DX001 (ip), vehicle: saline
[5] = dose: 200.0 mg/kg/injection, schedule: Q01DX001 (ip), vehicle: saline
[6] = dose: 400.0 mg/kg/injection, schedule: Q01DX001 (ip), vehicle: saline
[7] = dose: 100.0 mg/kg/injection, schedule: Q01DX001 (ip), vehicle: Klucel (hydroxypropylcellulose) (HPC)
[8] = dose: 100.0 mg/kg/injection, schedule: Q04DX003 (ip), vehicle: Klucel (hydroxypropylcellulose) (HPC)
[9] = dose: 200.0 mg/kg/injection, schedule: Q01DX001 (ip), vehicle: Klucel (hydroxypropylcellulose) (HPC)
[10] = dose: 200.0 mg/kg/injection, schedule: Q04DX003 (ip), vehicle: Klucel (hydroxypropylcellulose) (HPC)
[11] = dose: 400.0 mg/kg/injection, schedule: Q01DX001 (ip), vehicle: Klucel (hydroxypropylcellulose) (HPC)
[12] = dose: 400.0 mg/kg/injection, schedule: Q04DX003 (ip), vehicle: Klucel (hydroxypropylcellulose) (HPC)
[13] = dose: 50.0 mg/kg/injection, schedule: Q01DX009 (ip), vehicle: Klucel (hydroxypropylcellulose) (HPC)
[14] = dose: 100.0 mg/kg/injection, schedule: Q01DX009 (ip), vehicle: Klucel (hydroxypropylcellulose) (HPC)
[15] = dose: 400.0 mg/kg/injection, schedule: Q01DX009 (ip), vehicle: Klucel (hydroxypropylcellulose) (HPC)
[16] = dose: 200.0 mg/kg/injection, schedule: Q01DX009 (ip), vehicle: Klucel (hydroxypropylcellulose) (HPC)
[17] = dose: 50.0 mg/kg/injection, schedule: Q01DX001 (ip), vehicle: carboxymethylcellulose (CMC)
[18] = dose: 100.0 mg/kg/injection, schedule: Q01DX009 (ip), vehicle: other
[19] = dose: 100.0 mg/kg/injection, schedule: Q04DX003 (ip), vehicle: saline
[20] = dose: 200.0 mg/kg/injection, schedule: Q04DX003 (ip), vehicle: saline
[21] = dose: 400.0 mg/kg/injection, schedule: Q04DX003 (ip), vehicle: saline
[22] = dose: 100.0 mg/kg/injection, schedule: Q01DX009 (ip), vehicle: saline
[23] = dose: 200.0 mg/kg/injection, schedule: Q01DX009 (ip), vehicle: saline

Measured: T/C

COC(=O)CCC(=O)Nc1ccc(C(=O)CBr)cc1
inactive: dose: 6.25 mg/kg/injection, schedule: Q01DX009 (ip), vehicle: Klucel (hydroxypropylcellulose) (HPC) 98 % of control | dose: 12.5 mg/kg/injection, schedule: Q01DX009 (ip), vehicle: Klucel (hydroxypropylcellulose) (HPC) 96 % of control | dose: 12.5 mg/kg/injection, schedule: Q04DX003 (ip), vehicle: Klucel (hydroxypropylcellulose) (HPC) 97 % of control | dose: 25.0 mg/kg/injection, schedule: Q01DX009 (ip), vehicle: Klucel (hydroxypropylcellulose) (HPC) 102 % of control | dose: 25.0 mg/kg/injection, schedule: Q04DX003 (ip), vehicle: Klucel (hydroxypropylcellulose) (HPC) 96 % of control | dose: 35.0 mg/kg/injection, schedule: Q01DX009 (ip), vehicle: Klucel (hydroxypropylcellulose) (HPC) 95 % of control | dose: 55.0 mg/kg/injection, schedule: Q01DX009 (ip), vehicle: Klucel (hydroxypropylcellulose) (HPC) 93 % of control

CCCCCSP(=S)(C(C)C)C(C)C
inactive: [1] 95 % of control | [2] 93 % of control | [3] 91 % of control

CCOC(=O)C1OC1C1c2cccc3cccc(c23)C1C1OC1C(=O)OCC (stereo unspecified)
inactive: [4] 107 % of control | [5] 94 % of control | [6] 102 % of control

CCC[n+]1nc2ccccc2c(=Nc2ccccc2[N+](=O)[O-])[n-]1
inactive: [7] 100 % of control | [8] 98 % of control | [9] 100 % of control | [10] 106 % of control | [11] 98 % of control | [12] 101 % of control

CCOC(=O)c1nnc(CC)[nH]c1=O
inactive: [7] 106 % of control | [9] 111 % of control | [11] 90 % of control

C=C(C)c1ccc(C)cc1-c1c(OCc2ccccc2)ccc(CCCCC)c1OC
inactive: [7] 97 % of control | [9] 92 % of control | [11] 92 % of control

O=C(Nc1cccc(C(F)(F)F)c1)Nc1ncccn1
inactive: [13] 90 % of control | [14] 94 % of control and 86 % of control | [15] 89 % of control

COc1ccc(Cl)cc1NC(=O)c1cccc(Cl)c1
inactive: [14] 110 % of control | [16] 110 % of control | [15] 104 % of control

ClC1(Cl)CC2CC1C1C3CC(C4OC34)C21 (stereo unspecified)
inactive: [17] 94 % of control and 119 % of control | dose: 100.0 mg/kg/injection, schedule: Q01DX001 (ip), vehicle: carboxymethylcellulose (CMC) 94 % of control | dose: 200.0 mg/kg/injection, schedule: Q01DX001 (ip), vehicle: carboxymethylcellulose (CMC) 105 % of control | dose: 400.0 mg/kg/injection, schedule: Q01DX001 (ip), vehicle: carboxymethylcellulose (CMC) 98 % of control

NC(=Nc1ccc(N)cc1)c1ccc(C(N)=Nc2ccc(N)cc2)cc1
inactive: dose: 2.5 mg/kg/injection, schedule: Q01DX015 (ip), vehicle: water 98 % of control | dose: 5.0 mg/kg/injection, schedule: Q01DX015 (ip), vehicle: water 100 % of control | dose: 10.0 mg/kg/injection, schedule: Q01DX015 (ip), vehicle: water 114 % of control | dose: 20.0 mg/kg/injection, schedule: Q01DX015 (ip), vehicle: water 100 % of control | dose: 36.7 mg/kg/injection, schedule: Q01DX015 (ip), vehicle: water 109 % of control | dose: 73.5 mg/kg/injection, schedule: Q01DX015 (ip), vehicle: water 105 % of control

COc1ccc(-c2sc(N)c(C#N)c2C)cc1OC
inactive: [1] 98 % of control | dose: 100.0 mg/kg/injection, schedule: Q04DX003 (ip), vehicle: saline with Tween-80 93 % of control and 97 % of control | [2] 93 % of control | dose: 200.0 mg/kg/injection, schedule: Q04DX003 (ip), vehicle: saline with Tween-80 95 % of control and 90 % of control | [3] 96 % of control | dose: 400.0 mg/kg/injection, schedule: Q04DX003 (ip), vehicle: saline with Tween-80 97 % of control and 102 % of control

N#CCN1Cc2ccccc2CCc2ccccc2C1
inactive: [13] 103 % of control | [14] 108 % of control | [8] 100 % of control | [16] 107 % of control | [10] 96 % of control

N#CCSc1ncnc2nc[nH]c12
inactive: dose: 15.0 mg/kg/injection, schedule: Q01DX010 (ip), vehicle: saline 94 % of control and 116 % of control | dose: 30.0 mg/kg/injection, schedule: Q01DX010 (ip), vehicle: saline 97 % of control and 110 % of control | [17] 107 % of control | dose: 60.0 mg/kg/injection, schedule: Q01DX010 (ip), vehicle: saline 118 % of control and 121 % of control | dose: 62.5 mg/kg/injection, schedule: Q01DX Z (ip), vehicle: carboxymethylcellulose (CMC) 109 % of control | dose: 76.0 mg/kg/injection, schedule: Q01DX001 (ip), vehicle: carboxymethylcellulose (CMC) 110 % of control | dose: 114.0 mg/kg/injection, schedule: Q01DX001 (ip), vehicle: carboxymethylcellulose (CMC) 107 % of control | dose: 171.0 mg/kg/injection, schedule: Q01DX001 (ip), vehicle: carboxymethylcellulose (CMC) 113 % of control | dose: 256.5 mg/kg/injection, schedule: Q01DX001 (ip), vehicle: carboxymethylcellulose (CMC) 123 % of control

O=C(COc1ccccc1)Nc1cccc(C(=O)O)c1
inactive: [8] 104 % of control | [10] 93 % of control | [12] 109 % of control

COc1cc2c(cc1OC)C1C(O)C(OC)C=C3CCN(C2)C31 (stereo unspecified)
inactive: [4] 100 % of control | [5] 97 % of control | [6] 103 % of control

COc1ccc2c(n1)Sc1c(N)nc(N)nc1N2
inactive: [14] 103 % of control | [16] 103 % of control | [15] 88 % of control

O=C1C(N2CCCCC2)=C(c2ccccc2)c2ccccc21
inactive: [4] 92 % of control | [5] 94 % of control | [6] 102 % of control

CC(C#N)(/C=C/c1ccccc1)Nc1ccccc1N (stereo unspecified)
inactive: [14] 95 % of control | [8] 94 % of control | [16] 95 % of control | [10] 98 % of control | [15] 96 % of control | [12] 93 % of control

NC(=O)c1cc(O)c(Br)c(O)c1
inactive: [18] 86 % of control | [19] 98 % of control | dose: 200.0 mg/kg/injection, schedule: Q01DX009 (ip), vehicle: other 100 % of control | [20] 109 % of control | dose: 400.0 mg/kg/injection, schedule: Q01DX009 (ip), vehicle: other 93 % of control | [21] 98 % of control

O=C1NC2(C(=O)O1)C1CC3CC(C1)CC2C3 (stereo unspecified)
inactive: dose: 12.5 mg/kg/injection, schedule: Q01DX009 (ip), vehicle: saline 108 % of control | dose: 25.0 mg/kg/injection, schedule: Q01DX009 (ip), vehicle: saline 107 % of control | dose: 50.0 mg/kg/injection, schedule: Q01DX009 (ip), vehicle: saline 105 % of control | dose: 100.0 mg/kg/injection, schedule: Q04DX003 (ip), vehicle: alcohol 100 % of control | dose: 200.0 mg/kg/injection, schedule: Q04DX003 (ip), vehicle: alcohol 90 % of control | dose: 400.0 mg/kg/injection, schedule: Q04DX003 (ip), vehicle: alcohol 100 % of control

CSc1ccccc1NC(=O)NCCCl
inactive: [22] 100 % of control | [23] 98 % of control

O=C1OC(=O)c2ccc(SCC(O)CCl)c3cccc1c23 (stereo unspecified)
inactive: dose: 25.0 mg/kg/injection, schedule: Q01DX009 (ip), vehicle: other 98 % of control | dose: 50.0 mg/kg/injection, schedule: Q01DX009 (ip), vehicle: other 93 % of control | [18] 93 % of control and 109 % of control

C=CCc1ccc(OCCNC(=O)Nc2ccc(C)cc2[N+](=O)[O-])c(OC)c1
inactive: [13] 87 % of control | [14] 98 % of control | [8] 91 % of control | [16] 98 % of control | [10] 96 % of control | [12] 96 % of control

O=C(COc1ccc(Cl)c(Cl)c1)NCc1ccncc1
inactive: [7] 93 % of control | [9] 102 % of control | [11] 102 % of control

CCCOCC(O)CO (stereo unspecified)
inactive: [22] 100 % of control | [19] 107 % of control | [23] 98 % of control | [20] 102 % of control | dose: 400.0 mg/kg/injection, schedule: Q01DX009 (ip), vehicle: saline 102 % of control | [21] 110 % of control

Reference: PubChem BioAssay AID248 (DTP/NCI, 2004)
